Here are results for one compound from EPA's ToxValDB 9.5 (doi:10.2903/j.efsa.2006.83r).

In brackets after ≈: the same amount, converted by molar mass. Several values for one entry are separate records, joined by “and”; a condition that tells them apart may be missing. Identical values can stand only once.

One series concerns Aphidius rhopalosiphi. As to the kind of experiment: LR50; higher = less toxic. The conditions noted are these: acute; duration: 48 hours; mortality.
The subject of a further series is Daphnia magna. The conditions noted are these: chronic/long-term; duration: 21 days.
The next series has as its system Tagia sp. Particulars: acute; duration: 14 days; mortality.
Another series deals with Rattus norvegicus. The conditions noted are these: acute; oral; gavage; M/F; clinical chemistry.
The test system of the next series is Apis mellifera. The conditions noted are these: acute; duration: 48 hours; dermal; mortality.
The next series concerns Lepomis macrochirus. The conditions noted are these: acute; duration: 96 hours; mortality.
Another series relates to Pimephales promelas. The conditions noted are these: chronic/long-term.

In the series with Aphidius rhopalosiphi, `CNC(=O)ON=C(C)SC` [Methomyl] registered an LR50 of 0.25 g/ha. Further, the NOEC came to 0.0016 mg/L in the series with Daphnia magna, 0.073 mg/L with Pimephales promelas, 150 mg/kg-day in the series with Colinus virginianus (reproduction developmental) and 150 mg/kg in the series on Anas platyrhynchos (reproductive). Moreover, the LC50 with Tagia sp. came out at 19 mg/kg; in the series with Lepomis macrochirus, 0.63 µg/mL (≈ 3.88 µM); in the series with Anas platyrhynchos (short-term, oral, feed, mortality) it was 3950 mg/kg. This compound also showed a no observed adverse effect level (NOAEL) in the series with Rattus norvegicus of 0.25 mg/kg-day and an NOAEL (reproductive, development) of 75 mg/kg. Further, the LD50 in the series with Apis mellifera turned out to be 0.16 µg/piece; the LD50 with Colinus virginianus (acute, oral, mortality) was 24.2 mg/kg and 30.4 mg/kg; the LD50 (acute, oral, unspecified, mortality) stood at 30 mg/kg.
